Laboratory results as given in PubChem BioAssay (NCI).
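Five compound concentrations were applied to cells in 96-well plates for 48 hours; endpoints were derived by simple linear interpolation of the resulting dose-response curve. GI50 marks 50% less growth. The concentration for full growth arrest is given as TGI.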 Where a SMILES comes first, the peptide text is derived from it. The star is where a group is joined. Cbz = O=C(OCc1ccccc1)*; Boc = CC(C)(C)OC(=O)*; tBu = CC(C)(C)*

What was measured:
Assay in all cases: DTP human tumour cell line panel, 48 h
KM12 colon = test system: KM12 colon
A549 NSCLC = test system: A549 NSCLC
DU-145 prostate = test system: DU-145 prostate
SK-MEL-5 melanoma = test system: SK-MEL-5 melanoma
NCI-H226 lung = test system: NCI-H226 lung
HT29 colon = test system: HT29 colon
NCI-H522 lung = test system: NCI-H522 lung
NCI/ADR-RES ovarian = test system: NCI/ADR-RES ovarian
ACHN renal = test system: ACHN renal
SK-OV-3 ovarian = test system: SK-OV-3 ovarian

Row | Compound | TGI (KM12 colon) | TGI (A549 NSCLC) | TGI (DU-145 prostate) | TGI (SK-MEL-5 melanoma) | TGI (NCI-H226 lung) | TGI (HT29 colon) | TGI (NCI-H522 lung) | TGI (NCI/ADR-RES ovarian) | TGI (ACHN renal) | TGI (SK-OV-3 ovarian) | GI50 (KM12 colon) | GI50 (A549 NSCLC) | GI50 (DU-145 prostate) | GI50 (SK-MEL-5 melanoma) | GI50 (NCI-H226 lung) | GI50 (HT29 colon) | GI50 (NCI-H522 lung) | GI50 (NCI/ADR-RES ovarian) | GI50 (ACHN renal)
1 | CC(OC(C)(C)C)C(NC(=O)C(CCCCNC(=O)OC(C)(C)C)NC(=O)C(Cc1c[nH]c2ccccc12)NC(=O)C(Cc1ccccc1)NC(=O)OCc1ccccc1)C(=O)NC(Cc1ccccc1)C(=O)O (configuration not stated) (Cbz-FWK(Boc)T(tBu)F-OH; configuration not given here) | > 100 µM | > 100 µM | > 100 µM | 33.9 µM | > 100 µM | > 100 µM | 85 µM | > 100 µM | > 100 µM | > 100 µM |  |  |  |  |  |  |  |  | 
2 | C=C1CCC23CC(CC[C@@H]2[C@@]12C[C@@H](c1ccoc1)OC2=O)OC3=O (some centres not stated) | > 100 µM | > 100 µM |  | > 100 µM | > 100 µM | > 100 µM | > 100 µM |  | > 100 µM | > 100 µM |  |  |  |  |  |  |  |  | 
3 | COc1ccc(-c2cc(=O)c3ccccc3[nH]2)c(OC)c1 | > 100 µM | > 100 µM |  |  |  | > 100 µM | > 100 µM |  | > 100 µM | > 100 µM |  |  |  |  |  |  |  |  | 
4 | CC1(C)CC(=O)C(/C=N/c2nc(-c3ccccc3)cs2)=C(O)C1 | > 100 µM | > 100 µM | > 100 µM | > 100 µM | > 100 µM | > 100 µM |  | > 100 µM | > 100 µM | > 100 µM |  |  |  |  |  |  |  |  | 
5 | CCOC(=O)C(Cc1cn(S(=O)(=O)c2ccccc2)c2ccccc12)(NC(C)=O)C(=O)OCC | > 100 µM | > 100 µM |  | 33.7 µM | 93.6 µM | > 100 µM | 52.5 µM |  | > 100 µM |  |  |  |  |  |  |  |  |  | 
6 | CCCCCCCCCCN(CCCCCCCCCC)C(=O)COc1c2cc(C(C)(C)C)cc1Cc1cc(C(C)(C)C)cc(c1OCC(=O)N(CCCCCCCCCC)CCCCCCCCCC)Cc1cc(C(C)(C)C)cc(c1OCC(=O)N(CCCCCCCCCC)CCCCCCCCCC)Cc1cc(C(C)(C)C)cc(c1OCC(=O)N(CCCCCCCCCC)CCCCCCCCCC)C2 | 24.5 µM | 30.4 µM | 31.8 µM | 26.4 µM | 36.3 µM | 12.3 µM | 10.2 µM | 29.2 µM | 28.1 µM | 27.6 µM |  |  |  |  |  |  |  |  | 
7 | COc1cccc(/C=C2\C(=O)N(C(=O)c3ccc(NC(C)=O)cc3)N=C2C)c1 |  | > 100 µM |  | > 100 µM | > 100 µM | > 100 µM | > 100 µM |  | > 100 µM |  |  |  |  |  |  |  |  |  | 
8 | CCOC(=O)C1(C(=O)OCC)C[C@H](C)[C@](C)(O)C1 | > 100 µM | > 100 µM | > 100 µM | > 100 µM | > 100 µM | > 100 µM | > 100 µM | > 100 µM | > 100 µM | > 100 µM |  |  |  |  |  |  |  |  | 
9 | C=CCc1cc(-c2cc(CC=C)c(O)c(CNCCCl)c2)cc(CNCCCl)c1O | 31.4 µM | 76.1 µM |  | 28.6 µM | 35.4 µM | 36.5 µM | 32.8 µM |  | 46.2 µM |  |  |  |  |  |  |  |  |  | 
10 | N#C/C(N)=C(\C#N)N=CN | > 100 µM | > 100 µM | > 100 µM | > 100 µM |  | > 100 µM |  | > 100 µM | > 100 µM | > 100 µM |  |  |  |  |  |  |  |  | 
11 | O=S1(=O)N(CCNc2nccc(-c3c(-c4cccc(O)c4)nc4sccn34)n2)CCN1Cc1ccccc1 | 15.3 µM | > 50 µM | 26.1 µM | 9.79 µM | 20.8 µM | 36.4 µM | 14.9 µM | > 50 µM | 48.2 µM |  | 5.44 µM | 12.5 µM | 8.1 µM | 3.04 µM | 7.45 µM | 2.57 µM | 2.98 µM | 14.1 µM | 3.83 µM
12 | CC(=NNC(=S)Nc1ccc(C)cc1)c1cccc(C(C)=NNC(=S)Nc2ccc(C)cc2)n1 | > 100 µM | > 100 µM | > 100 µM | 38.7 µM | 73.6 µM | > 100 µM | 63.7 µM | 58.8 µM | 95.2 µM | 97.6 µM |  |  |  |  |  |  |  |  | 
13 | COC/C=C\[C@]1(O)CCCC[C@@H]1CC(OC)OC | > 100 µM | > 100 µM | > 100 µM | > 100 µM | > 100 µM | > 100 µM | > 100 µM | > 100 µM | > 100 µM | > 100 µM |  |  |  |  |  |  |  |  | 
14 | C/C=C(/C)C(=O)O[C@H]1C[C@@H]2[C@@H](O)c3occ(C)c3C[C@]2(C)[C@@H](C)C1 | 30.2 µM |  | 28.2 µM | 22.6 µM | 29.2 µM | 31.1 µM | 30.6 µM | 28.3 µM | 31 µM | 30.9 µM |  |  |  |  |  |  |  |  | 
15 | c1csc(-c2cc(-c3cccs3)c(-c3ccsc3)s2)c1 | > 100 µM | > 100 µM | > 100 µM | > 100 µM | > 100 µM | > 100 µM |  | > 100 µM | > 100 µM | > 100 µM |  |  |  |  |  |  |  |  | 
16 | COc1cc(O)c2c(c1)OCC(Cc1ccc(O)cc1)C2=O (configuration not stated) | > 100 µM | > 100 µM | > 100 µM | > 100 µM | > 100 µM | > 100 µM | > 100 µM | > 100 µM | > 100 µM | > 100 µM |  |  |  |  |  |  |  |  | 
